Data on 14 molecules can be found in patent US20090209536A1, “AMINOQUINAZOLINE CANNABINOID RECEPTOR MODULATORS FOR TREATMENT OF DISEASE” (KALYPSYS, INC., priority 2007, published 2009).

Experiment [1] deals with T1, human cannabinoid receptor type 2 (Homo sapiens, UniProt P34972).
T1 construct: expressed in transfected cells; membrane preparation
Briefly: Human CB2 Radioligand Binding Assay. Conditions: competition with [3H] CP-55,940; membranes from stably transfected CHO CB2 cells; read-out: CB2 Ligand Binding Asssay EC50. In outline:
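Filtration competition binding on membranes from CHO cells stably expressing human CB2, with [3H]CP-55,940 at its lot-specific Kd, in 50 mM Tris-HCl pH 7.4, EGTA, MgCl2, 5 mg/ml BSA, 1% DMSO; 90 min at 30° C. Compounds at 10 uM single point or dose-response; bound radioactivity by scintillation, 100 nM CP-55,940 as 100% efficacy.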

Experiment [2] addresses T2, human cannabinoid receptor type 1 (Homo sapiens, UniProt P21554).
T2 construct: purchased Perkin Elmer RBHCB1M; host or cells: HEK 293 EBNA cells
In words: Human CB1 Radioligand Binding Assay (basis of selectivity, CB2 vs. CB1). Conditions: CB1: HEK 293 EBNA cells expressing human CB1; CB2: CHO CB2 membranes. As to the method: 2. Human CB1 Radioligand Binding Assay
The incubation buffer was composed of 50 mM Tris-HCl pH 7.4, 2.5 mM EDTA, 5 mM MgCl2, 5.0 mg/ml fatty acid free BSA and the wash buffer was composed of 50 mM Tris-HCl pH 7.4, 2.5 mM EDTA, 5 mM MgCl2, 0.5 mg/ml fatty acid free BSA.

T2 sequence (P21554 whole entry): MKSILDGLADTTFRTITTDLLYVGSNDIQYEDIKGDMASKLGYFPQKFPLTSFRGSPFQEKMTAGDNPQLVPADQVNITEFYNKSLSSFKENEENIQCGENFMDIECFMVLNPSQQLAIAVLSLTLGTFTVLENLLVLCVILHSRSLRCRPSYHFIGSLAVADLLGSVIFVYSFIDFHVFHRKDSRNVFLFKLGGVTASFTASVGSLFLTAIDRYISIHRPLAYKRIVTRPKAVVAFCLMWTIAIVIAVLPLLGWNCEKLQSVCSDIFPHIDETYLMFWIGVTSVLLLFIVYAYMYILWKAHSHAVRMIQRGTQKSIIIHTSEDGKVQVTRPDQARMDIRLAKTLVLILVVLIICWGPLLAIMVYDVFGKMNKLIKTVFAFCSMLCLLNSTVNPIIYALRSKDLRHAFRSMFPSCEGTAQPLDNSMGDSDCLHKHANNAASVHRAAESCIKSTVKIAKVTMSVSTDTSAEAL
T1 sequence (P34972 whole entry): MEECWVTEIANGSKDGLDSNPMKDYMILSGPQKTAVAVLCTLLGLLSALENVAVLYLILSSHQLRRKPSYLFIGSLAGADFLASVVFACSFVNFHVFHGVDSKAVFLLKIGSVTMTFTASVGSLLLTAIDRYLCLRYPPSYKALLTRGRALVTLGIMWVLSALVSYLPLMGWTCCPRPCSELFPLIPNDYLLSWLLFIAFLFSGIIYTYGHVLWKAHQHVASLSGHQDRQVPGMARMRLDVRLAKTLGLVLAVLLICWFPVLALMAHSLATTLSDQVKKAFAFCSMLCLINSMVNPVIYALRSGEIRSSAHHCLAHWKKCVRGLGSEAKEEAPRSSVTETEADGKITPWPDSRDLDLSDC

The term EC50 denotes the midpoint of the concentration-response curve. For the molecule `CC(C)(C)c1ccc2nc(-c3ccccc3Cl)nc(N3CCSCC3)c2c1` [Example 169, 4-(6-tert-Butyl-2-(2-chlorophenyl)quinazolin-4-yl)thiomorpholine], the EC50 in experiment [1] was less than 1000 nM. Besides, the “Selectivity, CB2 vs. CB1” value in experiment [2] is on record as “+ (+ indicates > 10−fold)”.

Regarding `CCOC(=O)N1CCN(c2nc(-c3ccccc3Cl)nc3cccc(Cl)c23)CC1` [Example 266, Ethyl 4-(5-chloro-2-(2-chlorophenyl)quinazolin-4-yl)piperazine-1-carboxylate], the EC50 in experiment [1] was less than 1000 nM. Further, in experiment [2], the “Selectivity, CB2 vs. CB1” value is given as “+ (+ indicates > 10−fold)”.

As for `CC(=O)N1CCN(c2nc(-c3ccccc3Cl)nc3cccc(C)c23)CC1` [Example 254, 1-(4-(2-(2-Chlorophenyl)-5-methylquinazolin-4-yl)piperazin-1-yl)ethanone], the EC50 in experiment [1] was less than 1000 nM. Moreover, the “Selectivity, CB2 vs. CB1” value in experiment [2] is “− (− indicates ≦ 10−fold)”.

Consider `CC(=O)N1CCN(c2nc(-c3ccc(Cl)cc3)nc3ccccc23)CC1` [Example 199, 1-(4-(2-(4-Chlorophenyl)quinazolin-4-yl)piperazin-1-yl)ethanone], for which, in experiment [1], the EC50 was more than 1000 nM. Also, the “Selectivity, CB2 vs. CB1” value in experiment [2] is on record as “− (− indicates ≦ 10−fold)”.

As for `CC(C)C(=O)N1CCN(c2nc(-c3ccccc3Cl)nc3ccccc23)CC1` [Example 96, 1-(4-(2-(2-Chlorophenyl)quinazolin-4-yl)piperazin-1-yl)-2-methylpropan-1-one], the EC50 in experiment [1] was less than 1000 nM. In addition, the “Selectivity, CB2 vs. CB1” value in experiment [2] is reported as “+ (+ indicates > 10−fold)”.

For the molecule `CCOC(=O)N1CCN(c2nc(-c3ccccc3Cl)nc3ccc(C(C)(C)C)cc23)CC1` [Example 219, Ethyl 4-(6-tert-butyl-2-(2-chlorophenyl)quinazolin-4-yl)piperazine-1-carboxylate], in experiment [1], the EC50 is less than 1000 nM. The “Selectivity, CB2 vs. CB1” value in experiment [2] is on record as “+ (+ indicates > 10−fold)”.

With `Clc1ccccc1-c1nc(N2CCNCC2)c2ccccc2n1` [Example 82, 2-(2-Chlorophenyl)-4-piperazin-1-ylquinazoline], the EC50 in experiment [1] was more than 1000 nM. Moreover, the “Selectivity, CB2 vs. CB1” value in experiment [2] is “− (− indicates ≦ 10−fold)”.

Take `O=C1CN(c2nc(-c3ccccc3Cl)nc3ccccc23)CCN1` [Example 72, 4-(2-(2-Chlorophenyl)quinazolin-4-yl)piperazin-2-one]: the EC50 in experiment [1] was more than 1000 nM. In experiment [2], the “Selectivity, CB2 vs. CB1” value was “− (− indicates ≦ 10−fold)”.

On to `O=S(=O)(NCc1nc(N2Cc3ccccc3C2)c2ccccc2n1)c1cccc2ccccc12` [Example 308, N-((4-(isoindolin-2-yl)quinazolin-2-yl)methyl)naphthalene-1-sulfonamide], for which the EC50 in experiment [1] was less than 1000 nM. Besides, in experiment [2], the “Selectivity, CB2 vs. CB1” value is “− (− indicates ≦ 10−fold)”.

On to `Clc1ccc2c(N3CCCCC3)nc(C3CCCCC3)nc2c1` [Example 164, 7-Chloro-2-cyclohexyl-4-(piperidin-1-yl)quinazoline], for which the EC50 in experiment [1] is less than 1000 nM. For the same molecule, in experiment [2], the “Selectivity, CB2 vs. CB1” value is “+ (+ indicates > 10−fold)”.

As for `CCOC(=O)N1CCN(c2nc(Cc3ccccc3C)nc3ccccc23)CC1` [Example 340, Ethyl 4-(2-(2-methylbenzyl)quinazolin-4-yl)piperazine-1-carboxylate], the EC50 in experiment [1] was more than 1000 nM. For the same molecule, the “Selectivity, CB2 vs. CB1” value in experiment [2] is recorded as “+ (+ indicates > 10−fold)”.

For the molecule `FC(F)(F)c1ccc(-c2nc(N3CCCC3)c3ccccc3n2)cc1` [Example 45, 4-(Pyrrolidin-1-yl)-2-(4-(trifluoromethyl)phenyl)quinazoline], the EC50 in experiment [1] is less than 1000 nM. In addition, the “Selectivity, CB2 vs. CB1” value in experiment [2] is recorded as “+ (+ indicates > 10−fold)”.

Turning to `CN(Cc1ccccc1)c1nc(-c2ccc(F)cc2F)nc2ccccc12` [Example 26, Benzyl[2-(2,4-difluorophenyl)quinazolin-4-yl]methylamine], the EC50 in experiment [1] was more than 1000 nM. Moreover, the “Selectivity, CB2 vs. CB1” value in experiment [2] was “− (− indicates ≦ 10−fold)”.

As to `Fc1ccccc1-c1nc(N2CCCC2)c2c(Cl)cccc2n1` [Example 239, 5-Chloro-2-(2-fluorophenyl)-4-(pyrrolidin-1-yl)quinazoline], in experiment [1], the EC50 is less than 1000 nM. In addition, the “Selectivity, CB2 vs. CB1” value in experiment [2] is on record as “+ (+ indicates > 10−fold)”.
